ChEMBL document CHEMBL3407493, “Medicinal uses, phytochemistry and pharmacology of family Sterculiaceae: a review” (Eur J Med Chem, 2015)
In brackets after ≈: the same amount, converted by molar mass.

What was measured:
[1] = tested on: SK-MEL-28; experiment: Cytotoxicity against human SK-MEL-28 cells assessed as growth inhibition; assay type: functional, cell-based
[2] = Toxicity in Artemia salina Linn.; assay type: organism-based; conditions: in vivo
[3] = tested on: Klebsiella pneumoniae; experiment: Antibacterial activity against Klebsiella pneumoniae ATCC 10031; assay type: functional
[4] = Antibacterial activity against Salmonella setubal ATCC 19196; assay type: functional, Salmonella enterica subsp. enterica serovar Setubal; conditions: Salmonella enterica
[5] = tested on: Escherichia coli; experiment: Antibacterial activity against Escherichia coli ATCC 11103; assay type: functional
[6] = tested on: Liver microsome; experiment: Antioxidant activity in rat liver microsomes assessed as inhibition of NADPH-dependent lipid peroxidation; assay type: functional
[7] = Antioxidant activity assessed as DPPH radical scavenging activity; assay type: physicochemical
[8] = Antioxidant activity assessed as inhibition of linoleic acid autooxidation; assay type: physicochemical
[9] = Cytotoxicity against human Bel7402 cells assessed as growth inhibition; assay type: functional, cell-based; conditions: Bel-7402

Structure (SMILES) | IC50 [6] [µg/mL] | IC50 [7] [µg/mL] | IC50 [8] [µg/mL] | other results
C=C(C)[C@@H]1CC[C@]2(C(=O)O)CC[C@]3(C)[C@H](CC[C@@H]4[C@@]5(C)CC[C@H](OC(=O)/C=C/c6ccc(O)c(O)c6)C(C)(C)[C@@H]5CC[C@]43C)[C@@H]12 |  |  |  | IC50 [1]: 81700 nM
CC1=C2OC[C@@H](C)c3c(O)cc(C)c(c32)C(=O)C1=O |  |  |  | LC50 [2]: 50.7 µg/mL (≈ 196 µM)
CC(C)CC(C(=O)NC1C(=O)NC(Cc2ccccc2)C(=O)N/C=C\c2ccc(cc2)OC1C(C)C)N(C)C (configuration not stated) |  |  |  | MIC [3]: 25 µg/mL (≈ 46.8 µM); MIC [4]: 50 µg/mL (≈ 93.5 µM); MIC [5]: 25 µg/mL (≈ 46.8 µM)
COc1cc(C)c2oc(=O)c(C)cc2c1C(C)C |  |  |  | LC50 [2]: 24.2 µg/mL (≈ 98.2 µM)
Cc1cc2c(C(C)C)c(O)cc(C)c2oc1=O |  |  |  | LC50 [2]: 0.61 µg/mL (≈ 2.63 µM)
Cc1c2c3c(ccc(C)c3oc1=O)C(C)CO2 (configuration not stated) |  |  |  | LC50 [2]: 188 µg/mL (≈ 816 µM)
Oc1cc(O)c2c(c1)O[C@H](c1ccc(O)c(O)c1)[C@H](O)[C@H]2c1c(O)cc(O)c2c1O[C@H](c1ccc(O)c(O)c1)[C@H](O)[C@H]2c1c(O)cc(O)c2c1O[C@H](c1ccc(O)c(O)c1)[C@H](O)[C@H]2c1c(O)cc(O)c2c1O[C@H](c1ccc(O)c(O)c1)[C@H](O)C2 | 25 (≈ 21.6 µM) | 2.1 (≈ 1.82 µM) | 2.7 (≈ 2.34 µM) | 
OC[C@H]1O[C@@H](O[C@H]2[C@H]3c4c(O)cc(O)cc4O[C@]2(c2ccc(O)c(O)c2)Oc2cc(O)c4c(c23)O[C@H](c2ccc(O)c(O)c2)[C@H](O)C4)[C@H](O)[C@@H](O)[C@H]1O | 18 (≈ 24.4 µM) | 3.9 (≈ 5.28 µM) | 2.5 (≈ 3.38 µM) | 
Oc1cc(O)c2c(c1)O[C@]1(c3ccc(O)c(O)c3)Oc3cc(O)c4c(c3[C@H]2[C@@H]1O[C@@H]1OC[C@@H](O)[C@H](O)[C@H]1O)O[C@H](c1ccc(O)c(O)c1)[C@H](O)C4 | 21 (≈ 29.6 µM) | 3.9 (≈ 5.5 µM) | 2.2 (≈ 3.1 µM) | 
OC[C@H]1O[C@@H](O[C@@H]2[C@@H]3c4c(O)cc(O)cc4O[C@]2(c2ccc(O)c(O)c2)Oc2cc(O)c4c(c23)O[C@H](c2ccc(O)c(O)c2)[C@H](O)[C@H]4c2c(O)cc(O)c3c2O[C@H](c2ccc(O)c(O)c2)[C@H](O)C3)[C@H](O)[C@@H](O)[C@H]1O | 36 (≈ 35.1 µM) | 2.4 (≈ 2.34 µM) | 2 (≈ 1.95 µM) | 
Oc1cc(O)c2c(c1)O[C@]1(c3ccc(O)c(O)c3)Oc3cc(O)c4c(c3[C@@H]2[C@H]1O[C@@H]1OC[C@@H](O)[C@H](O)[C@H]1O)O[C@H](c1ccc(O)c(O)c1)[C@H](O)[C@H]4c1c(O)cc(O)c2c1O[C@H](c1ccc(O)c(O)c1)[C@H](O)C2 | 28 (≈ 28.1 µM) | 2.3 (≈ 2.31 µM) | 1.9 (≈ 1.91 µM) | 
C=C(C)[C@@H]1CC[C@]2(C(=O)O)CC[C@]3(COC(=O)c4ccccc4)[C@H](CC[C@@H]4[C@@]5(C)CC[C@H](OC(C)=O)C(C)(C)[C@@H]5CC[C@]43C)[C@@H]12 |  |  |  | IC50 [1]: 32000 nM
Oc1cc(O)c2c(c1)O[C@H](c1ccc(O)c(O)c1)[C@H](O)[C@H]2c1c(O)cc2c(c1O)C[C@@H](O)[C@@H](c1ccc(O)c(O)c1)O2 | 12 (≈ 20.7 µM) | 2.3 (≈ 3.98 µM) | 2.3 (≈ 3.98 µM) | 
CC1=Cc2c(C(C)C)ccc(C)c2C(=O)C1=O |  |  |  | LC50 [2]: 2.08 µg/mL (≈ 9.11 µM)
Cc1c(C)c2c(c(C)c1O)CCC(C)(CCCC(C)CCCC(C)CCCC(C)C)O2 (racemic) [alpha-TOCHOPHEROL] | 5.6 (≈ 13 µM) | 4.6 (≈ 10.7 µM) | 7.7 (≈ 17.9 µM) | 
Oc1cc(O)c2c(c1)O[C@H](c1ccc(O)c(O)c1)[C@H](O)C2 [(-)-EPICATECHIN] | 29 (≈ 99.9 µM) | 0.62 (≈ 2.14 µM) | 0.62 (≈ 2.14 µM) | 
O=C(N[C@H](CO)[C@H](O)c1ccc([N+](=O)[O-])cc1)C(Cl)Cl [CHLORAMPHENICOL] |  |  |  | MIC [3]: 1.56 µg/mL (≈ 4.83 µM); MIC [4]: 3.12 µg/mL (≈ 9.66 µM); MIC [5]: 3.12 µg/mL (≈ 9.66 µM)
CC(C)(O)/C=C/C(=O)[C@](C)(O)[C@H]1[C@H](O)C[C@@]2(C)[C@@H]3CC=C4[C@@H](C[C@H](O)C(=O)C4(C)C)[C@]3(C)C(=O)C[C@]12C [CUCURBITACIN D] |  |  |  | IC50 [9]: 1410 nM; IC50 [1]: 1220 nM
CC1(C)C(=O)[C@@H](O)C[C@@H]2C1=CC[C@@H]1[C@@]2(C)C(=O)C[C@]2(C)[C@@H]([C@@](C)(O)C(=O)CC(O)C(C)(C)O)[C@H](O)C[C@@]12C (some centres not stated) [CUCURBITACIN G] |  |  |  | IC50 [9]: 1370 nM; IC50 [1]: 1280 nM
CC1=Cc2c(c(C)cc(O)c2C(C)C)C(=O)C1=O [MANSONONE G] |  |  |  | LC50 [2]: 64.4 µg/mL (≈ 263 µM)
Oc1cc(O)c2c(c1)O[C@H](c1ccc(O)c(O)c1)[C@H](O)[C@H]2c1c(O)cc(O)c2c1O[C@H](c1ccc(O)c(O)c1)[C@H](O)C2 [PROCYANIDIN B2] | 12 (≈ 20.7 µM) | 1.4 (≈ 2.42 µM) |  | 
Oc1cc(O)c2c(c1)O[C@H](c1ccc(O)c(O)c1)[C@H](O)[C@H]2c1c(O)cc(O)c2c1O[C@H](c1ccc(O)c(O)c1)[C@H](O)[C@H]2c1c(O)cc(O)c2c1O[C@H](c1ccc(O)c(O)c1)[C@H](O)C2 [PROCYANIDIN C1] | 68 (≈ 78.5 µM) | 6.2 (≈ 7.15 µM) | 5.3 (≈ 6.11 µM) | 
